Results on 17 molecules are retold here after patent publication US9186361B2, “Compounds and compositions for the treatment of parasitic diseases” (Novartis AG, priority 2013, dated 2015).

What all share (assay type): cell-based
Experiment [1] concerns Leishmania donovani axenic amastigote parasites. The experiment in a line: Assay for Leishmania proliferation in vitro (axenic amastigotes, Cell TiterGlo). The conditions noted are these: 48 h, 2 day incubation, read-out: L. donovani amastigotes EC50. The essentials: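 L. donovani axenic amastigotes (9600 per well) are cultured with compound for 2 days at 37° C, 5% CO2 in RPMI-based medium at pH 5.5. Viability is read by CellTiterGlo luminescence, and EC50 is calculated.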

The subject of experiment [2] is Trypanosoma brucei Lister 427 strain. The experiment in a line: Assay for proliferation of kinetoplastid parasite Trypanosoma brucei (Cell Titer Glo). The conditions noted are these: bloodstream form, 48 hours, read-out: T. brucei EC50. From the text:
The proliferation is quantified by the addition of Cell Titer Glo (Promega®) a luminescent cell viability assay that measures the number of viable cells in culture based on the quantification of cellular ATP amount, which is an indicator of metabolically active cells. The following assay illustrates the invention without in any way limiting the scope of the invention. This parasite proliferation assay measures the increase in parasite growth using an assay that measures ATP activity, Cell Titer Glo®.
Trypanosoma brucei Lister 427 strain is grown in HMI-9 Trypanosome media for T. brucei bloodstream form. 30 μl of HMI-9 media is dispensed into 384 well assay plates. 200 nL of compounds of the invention (in DMSO), including anti-trypanosome controls (Pentamidine and suramin), are then transferred into the assay plates, as well as DMSO alone to serve as a negative control for inhibition. Then 25 μl of a suspension of T. brucei culture in HMI-9 media is dispensed into the assay plates. The final concentration of parasites in culture corresponds to 1.7% of 0.5 uM ATP activity with Cell Titer Glo® in HMI-9 media. The plates are placed in a 37° C. incubator for 48 hours in an atmospheric environment containing 5% CO2. 40 μl of Cell Titer Glo® is dispensed into the plates. The plates are then read for luminescence. The percentage inhibition of 50%, EC50, is calculated for each compound.

Experiment [3] deals with Trypanosoma cruzi amastigotes cultured in 3T3 fibroblast cells. Nature of the experiment: Assay for proliferation of kinetoplastid parasite Trypanosoma cruzi (beta-galactosidase/CPRG readout). The conditions noted are these: NIH3T3, 144 h, Tulahuen strain in 3T3 cells, 6 day incubation, read-out: T cruzi EC50. From the text:
Compounds of the invention can be assayed to measure their capacity to inhibit proliferation of kinetoplastid parasite Trypanosoma cruzi. The screening procedure is for identifying compounds with inhibitor activity against Trypanosoma cruzi amastigotes cultured in 3T3 fibroblast cells. The assay is done using the mammalian stage (amastigotes) of T. cruzi that replicates in the intracellular space of host cells. The host cells are initially infected with the culture-derived trypomastigotes that rapidly invade and then divide as amastigotes. The protocol uses the Tulahuen strain of T. cruzi that has been engineered to express the E. coli beta-galactosidase gene (Lac-Z) (Antimicr. Agents Chemoth. 40:2592, 1996). This allows for a colorimetric readout by using the substrate CPRG and an absorbance plate reader.
3T3 fibroblast cells are re-suspended in RPMI-1640 medium without phenol red medium supplemented with 10% FBS (heat inactivated), 100 μg/ml penicillin, and 100 μg/ml streptomycin. Forty μL of suspension (1,000 cells) is dispensed into 384-well plates and incubated overnight at 37° C. temperature and in atmosphere containing 5% CO2. The following day, 100 nL of compounds of the invention in DMSO are added to plate wells containing 3T3 cells. At the same time control compounds (benznidazole and nifurtimox) and DMSO are added to plates to serve as the positive and negative controls, respectively. After that, 10 μL of media containing 10,000 T. cruzi trypomastigotes are added to each plate well and plates are placed back into incubators. After 6 day incubation, 10 μL of reagent solution (0.6 mM CPRG, 0.6% NP-40 in PBS) is added to plates and incubated at room temperature for 2 hours. Absorbance is then measured on SpectraMax Gemini fluorimeter to determine relative number of T. cruzi cells present in each plate well. The percentage inhibition of 50%, EC50, is calculated for each compound.

The test system of experiment [4] is L. donovani HU3 strain in mouse peritoneal macrophages. The experiment in a line: Proliferation of L. donovani in mouse peritoneal macrophages (SybrGreen, high-content imaging). The conditions noted are these: Leishmania donovani, Peritoneal macrophage, 120 h; infected mouse peritoneal macrophages, 5 days; read-out: L. donavani Macrophage EC50. A digest of the protocol:
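Peritoneal macrophages from uninfected BALB/c mice were infected for 24 h with spleen-derived amastigotes (9-11 week infected mice), then exposed to compound for 5 days at 37° C. Fixed cells stained with SybrGreen and parasite nuclei counted by high-content imaging; EC50 calculated from inhibition.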

Each structure is given as a SMILES string.

In the case of `CCOC(=O)Nc1cnc2nc(-c3cccc(NC(=O)c4ccc(F)o4)c3)[nH]c2c1` [Example 3, ethyl N-{2-[3-(5-fluorofuran-2-amido)phenyl]-1H-imidazo[4,5-b]pyridin-6-yl}carbamate], the EC50 amounted to 7.7 µM in experiment [1], 0.23 µM in experiment [2], 2.23 µM in experiment [3] and 2.47 µM in experiment [4].
Take `CC(C)(COC(=O)Nc1cnc2nc(-c3cc(NC(=O)c4ccco4)ccc3Cl)[nH]c2c1)NC(=O)OC(C)(C)C` [Example 15, tert-butyl N-{1-[({2-[2-chloro-5-(furan-2-amido)phenyl]-1H-imidazo[4,5-b]pyridin-6-yl}carbamoyl)oxy]-2-methylpropan-2-yl}carbamate]: the EC50 in experiment [1] was determined as 5.1 µM; in experiment [2], 0.64 µM; in experiment [3], 1.85 µM; in experiment [4], 8.7 µM.
Take `Nc1cnc2nc(-c3cc(NC(=O)c4ccco4)ccc3Cl)[nH]c2c1` [Example 20, N-(3-{6-amino-1H-imidazo[4,5-b]pyridin-2-yl}-4-chlorophenyl)furan-2-carboxamide]: the EC50 in experiment [1] is 13.6 µM; in experiment [2], 1.38 µM; in experiment [3], 4.7 µM; in experiment [4], 18.9 µM.
For `O=C(Nc1cccnc1)Nc1cnc2nc(-c3cc(NC(=O)c4ccco4)ccc3Cl)[nH]c2c1` [Example 21, N-[4-chloro-3-(6-{[(pyridin-3-yl)carbamoyl]amino}-1H-imidazo[4,5-b]pyridin-2-yl)phenyl]furan-2-carboxamide], in that order: 17.7 µM, 1.59 µM, greater than 20 µM and greater than 50 µM.
As for `CC(C)(N)C(=O)Nc1cnc2nc(-c3cc(NC(=O)c4ccco4)ccc3Cl)[nH]c2c1` [Example 26, N-{3-[6-(2-amino-2-methylpropanamido)-1H-imidazo[4,5-b]pyridin-2-yl]-4-chlorophenyl}furan-2-carboxamide], the EC50 in experiment [1] is greater than 25 µM; in experiment [2], 0.53 µM; in experiment [3], 14.8 µM; in experiment [4] it was 23.3 µM.
`O=C(C[C@@H]1CCNC1)Nc1cnc2nc(-c3cc(NC(=O)c4ccco4)ccc3Cl)[nH]c2c1` [Example 32, N-[4-chloro-3-(6-{2-[(3S)-pyrrolidin-3-yl]acetamido}-1H-imidazo[4,5-b]pyridin-2-yl)phenyl]furan-2-carboxamide]: the EC50 in experiment [1] was greater than 25 µM; in experiment [2] it was 7.8 µM; in experiment [3] it was greater than 20 µM; in experiment [4] it was greater than 50 µM.
In the case of `O=C(C[C@H]1CCNC1)Nc1cnc2nc(-c3cc(NC(=O)c4ccco4)ccc3Cl)[nH]c2c1` [Example 34, N-[4-chloro-3-(6-{2-[(3R)-pyrrolidin-3-yl]acetamido}-1H-imidazo[4,5-b]pyridin-2-yl)phenyl]furan-2-carboxamide], the EC50 was greater than 25 µM in experiment [1], 15.2 µM in experiment [2], greater than 20 µM in experiment [3] and greater than 50 µM in experiment [4].
As for `O=C(Nc1ccc(Cl)c(-c2nc3ncc(NC(=O)C4(O)CC4)cc3[nH]2)c1)c1ccco1` [Example 35, N-(4-chloro-3-{6-[(1-hydroxycyclopropane)amido]-1H-imidazo[4,5-b]pyridin-2-yl}phenyl)furan-2-carboxamide], the EC50 in experiment [1] was 11.4 µM; in experiment [2], 0.907 µM; in experiment [3] it was greater than 20 µM; in experiment [4], greater than 50 µM.
`N#CC1(C(=O)Nc2cnc3nc(-c4cc(NC(=O)c5ccco5)ccc4Cl)[nH]c3c2)CC1` [Example 41, N-(4-chloro-3-{6-[(1-cyanocyclopropane)amido]-1H-imidazo[4,5-b]pyridin-2-yl}phenyl)-furan-2-carboxamide]: the EC50 is 0.68 µM in experiment [1], 0.08 µM in experiment [2], 0.82 µM in experiment [3] and 1.45 µM in experiment [4].
Turning to `COCC1(C(=O)Nc2cnc3nc(-c4cc(NC(=O)c5ccco5)ccc4Cl)[nH]c3c2)CC1` [Example 42, N-[4-chloro-3-(6-{[1-(methoxymethyl)cyclopropane]amido}-1H-imidazo[4,5-b]pyridin-2-yl)phenyl]furan-2-carboxamide], the EC50 in experiment [1] is 1.09 µM; in experiment [2], 0.185 µM; in experiment [3], 1.32 µM; in experiment [4], 1.91 µM.
`O=C(Nc1ccc(Cl)c(-c2nc3ncc(NC(=O)C4CC4(F)F)cc3[nH]2)c1)c1ccco1` (centres unmarked) [Example 44, N-(4-chloro-3-{6-[(2,2-difluorocyclopropane)amido]-1H-imidazo[4,5-b]pyridin-2-yl}phenyl)furan-2-carboxamide]: the EC50 in experiment [1] was 2.38 µM; in experiment [2] it was 0.282 µM; in experiment [3] it was 3.9 µM; in experiment [4], 5.3 µM.
Consider `O=C(Nc1ccc(Cl)c(-c2nc3ncc(NC(=O)C4CC4)cc3[nH]2)c1)c1ccco1` [Example 45, N-(4-chloro-3-{6-cyclopropaneamido-1H-imidazo[4,5-b]pyridin-2-yl}phenyl)-furan-2-carboxamide], for which the EC50 is 0.45 µM in experiment [1], 0.115 µM in experiment [2], 2.86 µM in experiment [3] and 1.16 µM in experiment [4].
Regarding `CC(C)OC(=O)Nc1cnc2nc(-c3cc(NC(=O)c4ccc(F)o4)ccc3Cl)[nH]c2c1` [Example 47, propan-2-yl N-{2-[2-chloro-5-(5-fluorofuran-2-amido)phenyl]-1H-imidazo[4,5-b]pyridin-6-yl}carbamate], the EC50 in experiment [1] stood at 0.9 µM; in experiment [2], 0.2 µM; in experiment [3] it was 0.4 µM; in experiment [4], 1.52 µM.
As to `CC(C)OC(=O)Nc1cnc2nc(-c3cc(NC(=O)c4ccc(C#N)o4)ccc3Cl)[nH]c2c1` [Example 48, propan-2-yl N-{2-[2-chloro-5-(5-cyanofuran-2-amido)phenyl]-1H-imidazo[4,5-b]pyridin-6-yl}carbamate], the EC50 in experiment [1] is 0.62 µM; in experiment [2] it was 0.223 µM; in experiment [3], 0.141 µM; in experiment [4], 0.56 µM.
For the molecule `CC1(OC(=O)Nc2cnc3nc(-c4cc(NC(=O)c5ccco5)ccc4Cl)[nH]c3c2)CC1` [Example 49, 1-methylcyclopropyl N-{2-[2-chloro-5-(furan-2-amido)phenyl]-1H-imidazo[4,5-b]pyridin-6-yl}carbamate], the EC50 amounted to 0.48 µM in experiment [1], 0.081 µM in experiment [2], 0.44 µM in experiment [3] and 0.49 µM in experiment [4].
Regarding `CC(C)OC(=O)Nc1cnc2nc(-c3cc(NC(=O)N4CCCC4)ccc3Cl)[nH]c2c1` [Example 54, propan-2-yl N-(2-{2-chloro-5-[(pyrrolidin-1-yl)carbonylamino]phenyl}-1H-imidazo[4,5-b]pyridin-6-yl)carbamate], the EC50 in experiment [1] amounted to 0.59 µM; in experiment [2], 0.068 µM; in experiment [3], 1.39 µM; in experiment [4] it was 1.86 µM.
As to `O=C(Nc1ccc(Cl)c(-c2nc3ncc(NC(=O)C4CCC4)cc3[nH]2)c1)c1ccco1` [Example 55, N-(4-chloro-3-{6-cyclobutaneamido-1H-imidazo[4,5-b]pyridin-2-yl}phenyl)furan-2-carboxamide], the EC50 in experiment [1] was 0.95 µM; in experiment [2], 0.075 µM; in experiment [3] it was 1.25 µM; in experiment [4] it was 0.83 µM.
